Reference: ChEMBL document CHEMBL5465560, “Selectivity Literature for EUbOPEN Chemogenomic Library” (2024)

Assays:
[1] = target: Tyrosine-protein kinase Fgr (Homo sapiens) (UniProt P09769); conditions: at 10 µM
[2] = target: T1, Tyrosine-protein kinase Tec (Homo sapiens) (UniProt P42680); assay: Selectivity interaction (KinomeScan (DiscoverX)) EUB0001868a TEC; conditions: at 1 µM
T1 sequence (whole entry): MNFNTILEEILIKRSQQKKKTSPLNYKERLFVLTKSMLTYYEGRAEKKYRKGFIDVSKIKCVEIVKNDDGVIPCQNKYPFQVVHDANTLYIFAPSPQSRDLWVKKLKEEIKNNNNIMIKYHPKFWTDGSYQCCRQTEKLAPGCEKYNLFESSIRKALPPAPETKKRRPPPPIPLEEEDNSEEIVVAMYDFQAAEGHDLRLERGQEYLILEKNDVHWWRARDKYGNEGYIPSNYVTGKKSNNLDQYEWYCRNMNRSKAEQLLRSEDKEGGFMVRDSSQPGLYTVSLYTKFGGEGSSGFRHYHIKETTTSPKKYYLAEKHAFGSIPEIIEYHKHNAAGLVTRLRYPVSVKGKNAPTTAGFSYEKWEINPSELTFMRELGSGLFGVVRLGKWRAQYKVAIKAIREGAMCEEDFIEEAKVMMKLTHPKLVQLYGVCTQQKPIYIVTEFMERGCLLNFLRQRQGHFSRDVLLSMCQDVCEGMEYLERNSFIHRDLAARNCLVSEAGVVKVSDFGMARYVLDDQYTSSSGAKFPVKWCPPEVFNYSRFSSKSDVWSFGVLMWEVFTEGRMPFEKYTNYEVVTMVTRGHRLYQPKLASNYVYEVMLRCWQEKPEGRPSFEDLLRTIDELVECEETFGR

[3] = target: Serine/threonine-protein kinase Nek4 (Homo sapiens) (UniProt P51957); assay: Selectivity interaction (KinomeScan (DiscoverX)) EUB0001049a NEK4; conditions: at 1 µM
Chain of Serine/threonine-protein kinase Nek4 (Homo sapiens) (P51957 whole entry, looked up): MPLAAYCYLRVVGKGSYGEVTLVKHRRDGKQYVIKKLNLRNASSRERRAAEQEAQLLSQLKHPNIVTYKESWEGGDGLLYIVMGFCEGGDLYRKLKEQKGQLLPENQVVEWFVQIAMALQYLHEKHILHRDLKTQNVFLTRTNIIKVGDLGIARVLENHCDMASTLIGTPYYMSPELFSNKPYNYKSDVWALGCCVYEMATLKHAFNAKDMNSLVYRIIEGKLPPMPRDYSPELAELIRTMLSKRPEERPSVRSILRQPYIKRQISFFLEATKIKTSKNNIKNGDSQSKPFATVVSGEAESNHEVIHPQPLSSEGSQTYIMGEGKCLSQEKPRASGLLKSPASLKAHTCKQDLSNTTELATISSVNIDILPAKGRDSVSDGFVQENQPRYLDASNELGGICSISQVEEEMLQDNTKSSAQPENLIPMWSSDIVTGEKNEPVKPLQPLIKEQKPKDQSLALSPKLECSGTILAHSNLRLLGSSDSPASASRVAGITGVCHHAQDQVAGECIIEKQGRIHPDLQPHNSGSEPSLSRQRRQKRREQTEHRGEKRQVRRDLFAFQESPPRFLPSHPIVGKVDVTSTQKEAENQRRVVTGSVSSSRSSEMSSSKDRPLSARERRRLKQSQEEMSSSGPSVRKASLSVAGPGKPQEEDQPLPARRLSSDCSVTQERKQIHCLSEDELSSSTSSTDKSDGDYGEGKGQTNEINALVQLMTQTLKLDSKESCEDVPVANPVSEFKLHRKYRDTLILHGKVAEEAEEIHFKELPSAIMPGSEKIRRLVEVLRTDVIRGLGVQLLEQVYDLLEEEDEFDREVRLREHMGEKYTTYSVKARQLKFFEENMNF

[4] = target: Macrophage colony-stimulating factor 1 receptor (Homo sapiens) (UniProt P07333); assay: Selectivity interaction (KinomeScan (DiscoverX)) EUB0001049a CSF1R; conditions: at 1 µM
[5] = target: Potassium voltage-gated channel subfamily A member 5 (Homo sapiens) (UniProt P22460); assay: Selectivity interaction (Panel of kinases, GPCRs, ion channels and transporters (enzymatic assay)) EUB0000266bCl KCNA5
[6] = target: T2, Mitogen-activated protein kinase kinase kinase kinase 2 (Homo sapiens) (UniProt Q12851); assay: Selectivity interaction (ActivX KiNativ screen (kinase selectivity in THP-1 cell lysates)) EUB0000639a MAP4K2; assay type: subcellular; conditions: lysate, at 5 µM
T2 sequence (whole entry): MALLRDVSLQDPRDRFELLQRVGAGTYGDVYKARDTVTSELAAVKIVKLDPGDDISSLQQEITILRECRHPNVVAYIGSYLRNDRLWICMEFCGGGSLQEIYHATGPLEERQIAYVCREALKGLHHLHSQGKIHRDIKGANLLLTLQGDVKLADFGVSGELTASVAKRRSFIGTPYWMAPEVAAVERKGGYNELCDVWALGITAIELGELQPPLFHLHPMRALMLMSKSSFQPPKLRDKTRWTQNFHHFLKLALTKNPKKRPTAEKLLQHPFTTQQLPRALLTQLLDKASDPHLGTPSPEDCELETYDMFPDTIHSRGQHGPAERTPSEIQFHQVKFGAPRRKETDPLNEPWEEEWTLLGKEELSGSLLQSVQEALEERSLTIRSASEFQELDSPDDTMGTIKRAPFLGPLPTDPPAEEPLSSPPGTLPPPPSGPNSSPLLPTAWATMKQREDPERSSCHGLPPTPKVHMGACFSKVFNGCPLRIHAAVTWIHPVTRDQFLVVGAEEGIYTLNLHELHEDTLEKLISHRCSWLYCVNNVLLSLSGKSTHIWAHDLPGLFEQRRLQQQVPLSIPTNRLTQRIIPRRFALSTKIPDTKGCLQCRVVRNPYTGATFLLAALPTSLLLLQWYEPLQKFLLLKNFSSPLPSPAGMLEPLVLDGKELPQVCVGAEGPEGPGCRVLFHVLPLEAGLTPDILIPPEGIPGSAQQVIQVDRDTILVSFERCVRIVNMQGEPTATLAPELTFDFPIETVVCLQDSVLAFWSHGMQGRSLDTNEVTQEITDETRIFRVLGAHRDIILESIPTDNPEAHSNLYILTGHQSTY

[7] = target: T3, Histone-arginine methyltransferase CARM1 (Homo sapiens) (UniProt Q86X55); assay: Selectivity interaction (Transferase panel (protein, RNA, and DNA methyltransferases. and EP300 (acetyltransferase))) EUB0000270b CARM1
T3 sequence (whole entry): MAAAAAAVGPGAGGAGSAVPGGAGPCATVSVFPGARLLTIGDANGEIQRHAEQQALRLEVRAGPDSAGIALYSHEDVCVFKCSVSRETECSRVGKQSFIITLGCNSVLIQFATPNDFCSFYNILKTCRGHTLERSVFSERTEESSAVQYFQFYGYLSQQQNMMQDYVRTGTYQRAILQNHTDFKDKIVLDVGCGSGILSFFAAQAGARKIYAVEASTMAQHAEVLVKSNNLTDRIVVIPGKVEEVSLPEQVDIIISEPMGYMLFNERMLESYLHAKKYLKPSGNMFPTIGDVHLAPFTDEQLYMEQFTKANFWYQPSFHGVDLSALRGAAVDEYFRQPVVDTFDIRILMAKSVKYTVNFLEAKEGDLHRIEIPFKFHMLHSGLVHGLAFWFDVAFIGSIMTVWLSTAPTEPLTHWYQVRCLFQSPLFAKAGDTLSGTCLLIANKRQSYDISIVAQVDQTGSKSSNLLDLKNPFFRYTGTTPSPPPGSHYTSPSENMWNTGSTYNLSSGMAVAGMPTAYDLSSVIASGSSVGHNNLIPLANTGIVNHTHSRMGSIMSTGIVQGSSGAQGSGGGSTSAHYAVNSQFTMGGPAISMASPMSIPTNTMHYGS

[8] = target: Dual specificity tyrosine-phosphorylation-regulated kinase 1B (Homo sapiens, UniProt Q9Y463); assay: Selectivity interaction (KinomeScan (DiscoverX)) EUB0001550a DYRK1B; conditions: at 1 µM
Chain of Dual specificity tyrosine-phosphorylation-regulated kinase 1B (Q9Y463 whole entry, looked up): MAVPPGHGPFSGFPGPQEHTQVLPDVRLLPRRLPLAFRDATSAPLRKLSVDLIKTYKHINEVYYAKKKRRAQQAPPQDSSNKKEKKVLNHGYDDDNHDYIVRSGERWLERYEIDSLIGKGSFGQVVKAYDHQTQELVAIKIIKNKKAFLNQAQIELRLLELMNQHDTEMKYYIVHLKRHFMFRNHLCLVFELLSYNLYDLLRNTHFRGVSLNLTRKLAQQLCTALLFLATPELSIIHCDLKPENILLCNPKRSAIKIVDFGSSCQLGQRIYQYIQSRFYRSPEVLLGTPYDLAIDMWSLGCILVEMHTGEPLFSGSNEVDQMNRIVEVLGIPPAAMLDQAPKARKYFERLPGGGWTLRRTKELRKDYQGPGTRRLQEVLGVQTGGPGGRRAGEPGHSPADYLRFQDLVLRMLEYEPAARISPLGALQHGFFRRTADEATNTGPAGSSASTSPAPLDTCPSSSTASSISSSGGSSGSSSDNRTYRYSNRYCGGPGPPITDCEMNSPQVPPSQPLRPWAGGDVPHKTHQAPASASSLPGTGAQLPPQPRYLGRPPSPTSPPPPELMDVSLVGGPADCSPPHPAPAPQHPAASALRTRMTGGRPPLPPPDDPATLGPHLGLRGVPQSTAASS

[9] = target: Ribosomal protein S6 kinase alpha-3 (Homo sapiens, UniProt P51812); assay: Selectivity interaction (KinomeScan (DiscoverX)) EUB0001079a RPS6KA3; conditions: at 1 µM
Chain of Ribosomal protein S6 kinase alpha-3 (P51812 whole entry): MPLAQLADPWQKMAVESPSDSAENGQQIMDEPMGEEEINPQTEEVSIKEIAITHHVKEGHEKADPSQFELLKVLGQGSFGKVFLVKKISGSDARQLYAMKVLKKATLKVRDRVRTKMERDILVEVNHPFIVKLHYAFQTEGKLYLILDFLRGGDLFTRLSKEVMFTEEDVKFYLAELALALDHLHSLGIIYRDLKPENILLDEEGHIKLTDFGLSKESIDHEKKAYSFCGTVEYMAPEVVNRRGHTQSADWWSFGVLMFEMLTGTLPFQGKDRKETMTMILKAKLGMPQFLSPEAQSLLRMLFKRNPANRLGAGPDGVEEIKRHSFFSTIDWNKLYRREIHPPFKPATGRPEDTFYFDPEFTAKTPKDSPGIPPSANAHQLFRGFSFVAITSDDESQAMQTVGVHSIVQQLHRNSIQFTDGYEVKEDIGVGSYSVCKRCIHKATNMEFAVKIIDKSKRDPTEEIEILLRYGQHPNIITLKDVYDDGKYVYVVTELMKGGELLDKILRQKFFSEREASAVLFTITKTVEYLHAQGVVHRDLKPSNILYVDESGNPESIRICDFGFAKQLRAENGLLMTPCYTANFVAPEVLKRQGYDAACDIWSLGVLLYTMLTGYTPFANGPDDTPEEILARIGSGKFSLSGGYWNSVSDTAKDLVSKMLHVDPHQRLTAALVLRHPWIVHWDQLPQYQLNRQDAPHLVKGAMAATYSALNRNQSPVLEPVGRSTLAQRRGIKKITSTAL

[10] = target: Platelet-derived growth factor receptor beta (Homo sapiens, UniProt P09619); assay: Selectivity interaction (KinomeScan (DiscoverX)) EUB0000092b PDGFRB; conditions: at 10 µM
Chain of Platelet-derived growth factor receptor beta (P09619 whole entry): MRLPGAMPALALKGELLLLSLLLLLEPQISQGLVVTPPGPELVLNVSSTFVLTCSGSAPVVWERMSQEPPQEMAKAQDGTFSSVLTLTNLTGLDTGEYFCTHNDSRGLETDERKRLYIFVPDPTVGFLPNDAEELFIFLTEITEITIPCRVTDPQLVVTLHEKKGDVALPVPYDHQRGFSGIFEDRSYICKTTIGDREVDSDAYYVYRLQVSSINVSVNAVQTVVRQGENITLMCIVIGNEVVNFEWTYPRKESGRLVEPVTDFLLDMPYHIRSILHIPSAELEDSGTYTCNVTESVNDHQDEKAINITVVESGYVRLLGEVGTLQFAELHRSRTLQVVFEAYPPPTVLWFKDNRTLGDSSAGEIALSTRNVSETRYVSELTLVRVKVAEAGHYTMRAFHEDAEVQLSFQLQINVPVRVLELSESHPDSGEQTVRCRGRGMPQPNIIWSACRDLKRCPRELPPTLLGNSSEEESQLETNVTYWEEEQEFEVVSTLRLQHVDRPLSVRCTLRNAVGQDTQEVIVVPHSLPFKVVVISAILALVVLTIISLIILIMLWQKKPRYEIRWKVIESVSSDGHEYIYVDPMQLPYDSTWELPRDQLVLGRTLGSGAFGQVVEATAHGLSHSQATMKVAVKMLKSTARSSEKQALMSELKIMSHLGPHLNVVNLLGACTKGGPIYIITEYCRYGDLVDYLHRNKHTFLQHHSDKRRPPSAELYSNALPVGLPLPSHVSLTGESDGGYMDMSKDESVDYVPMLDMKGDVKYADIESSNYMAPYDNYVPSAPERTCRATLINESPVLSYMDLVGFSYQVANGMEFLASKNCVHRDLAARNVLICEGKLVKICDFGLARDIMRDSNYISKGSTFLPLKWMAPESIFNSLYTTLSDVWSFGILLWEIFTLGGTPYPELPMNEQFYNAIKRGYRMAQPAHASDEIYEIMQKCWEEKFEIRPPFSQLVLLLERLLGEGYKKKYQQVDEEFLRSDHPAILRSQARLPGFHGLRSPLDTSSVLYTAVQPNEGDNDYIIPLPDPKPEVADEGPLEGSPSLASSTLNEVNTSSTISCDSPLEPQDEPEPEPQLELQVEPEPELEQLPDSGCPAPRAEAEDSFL

[11] = system: Tyrosine-protein kinase ABL1 (Homo sapiens), P00519 [F317L]; assay: Selectivity interaction (KinomeScan (DiscoverX)) EUB0000045b ABL1; conditions: at 1 µM
Chain of Tyrosine-protein kinase ABL1 (Homo sapiens), P00519 [F317L] (P00519 whole entry F317L): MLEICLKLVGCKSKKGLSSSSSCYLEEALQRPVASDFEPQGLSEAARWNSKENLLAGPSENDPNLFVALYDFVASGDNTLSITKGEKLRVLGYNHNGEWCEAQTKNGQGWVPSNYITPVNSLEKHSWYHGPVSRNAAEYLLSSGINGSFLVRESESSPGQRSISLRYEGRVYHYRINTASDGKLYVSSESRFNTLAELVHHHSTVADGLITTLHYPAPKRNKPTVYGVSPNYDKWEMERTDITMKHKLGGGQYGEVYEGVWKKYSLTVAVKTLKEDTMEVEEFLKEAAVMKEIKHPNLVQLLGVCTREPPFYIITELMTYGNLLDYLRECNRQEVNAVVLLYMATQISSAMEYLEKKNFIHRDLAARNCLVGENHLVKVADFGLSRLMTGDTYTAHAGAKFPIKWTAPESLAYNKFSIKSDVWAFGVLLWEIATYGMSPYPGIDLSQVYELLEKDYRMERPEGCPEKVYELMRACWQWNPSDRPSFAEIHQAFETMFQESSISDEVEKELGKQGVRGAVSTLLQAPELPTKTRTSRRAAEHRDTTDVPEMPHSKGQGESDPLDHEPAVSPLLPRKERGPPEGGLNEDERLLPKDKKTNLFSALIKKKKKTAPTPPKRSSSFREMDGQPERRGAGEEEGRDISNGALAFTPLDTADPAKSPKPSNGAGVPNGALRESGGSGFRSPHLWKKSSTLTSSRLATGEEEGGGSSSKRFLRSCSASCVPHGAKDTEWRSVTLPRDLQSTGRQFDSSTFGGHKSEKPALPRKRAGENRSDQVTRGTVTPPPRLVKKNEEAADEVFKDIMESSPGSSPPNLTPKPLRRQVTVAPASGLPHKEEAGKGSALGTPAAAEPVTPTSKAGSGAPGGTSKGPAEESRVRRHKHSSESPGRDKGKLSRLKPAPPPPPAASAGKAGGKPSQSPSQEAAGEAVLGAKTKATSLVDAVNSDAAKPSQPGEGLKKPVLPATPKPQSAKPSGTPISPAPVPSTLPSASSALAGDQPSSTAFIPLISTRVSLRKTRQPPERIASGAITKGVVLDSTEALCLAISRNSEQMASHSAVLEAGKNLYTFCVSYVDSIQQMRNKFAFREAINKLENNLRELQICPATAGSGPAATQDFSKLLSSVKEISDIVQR

[12] = target: T2, Mitogen-activated protein kinase kinase kinase kinase 2 (Homo sapiens); assay: Selectivity interaction (KinomeScan (DiscoverX)) EUB0000618a MAP4K2; conditions: at 10 µM
[13] = target: Death-associated protein kinase 1 (Homo sapiens, UniProt P53355); assay: Selectivity interaction (KinomeScan (DiscoverX)) EUB0000618a DAPK1; conditions: at 10 µM
[14] = target: Dual specificity tyrosine-phosphorylation-regulated kinase 1A (Homo sapiens, UniProt Q13627); assay: Selectivity interaction (KinomeScan (DiscoverX)) EUB0000607a DYRK1A; conditions: at 10 µM

Chain of Tyrosine-protein kinase Fgr (Homo sapiens) (P09769 2-529 limits assumed): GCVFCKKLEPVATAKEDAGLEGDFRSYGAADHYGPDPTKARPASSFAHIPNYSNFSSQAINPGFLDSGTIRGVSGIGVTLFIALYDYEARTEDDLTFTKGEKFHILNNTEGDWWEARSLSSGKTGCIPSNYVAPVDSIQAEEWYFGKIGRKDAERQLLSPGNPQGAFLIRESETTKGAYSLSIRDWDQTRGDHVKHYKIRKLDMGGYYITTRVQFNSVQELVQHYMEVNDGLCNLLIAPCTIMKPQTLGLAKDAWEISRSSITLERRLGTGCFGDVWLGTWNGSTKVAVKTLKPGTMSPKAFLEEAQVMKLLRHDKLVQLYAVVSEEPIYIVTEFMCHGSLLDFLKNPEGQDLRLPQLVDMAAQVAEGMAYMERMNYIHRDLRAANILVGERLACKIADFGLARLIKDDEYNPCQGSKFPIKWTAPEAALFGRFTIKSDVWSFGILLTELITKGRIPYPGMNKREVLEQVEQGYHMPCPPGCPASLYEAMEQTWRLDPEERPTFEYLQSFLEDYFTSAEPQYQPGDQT

Cc1cc([C@@H](C)Nc2ccccc2C(=O)O)c2nc(N3CCOCC3)cc(=O)n2c1 [AZD-6482]
% of control [1]: 95%

Cc1cc(-c2ccnc(Nc3cnn(C)c3)n2)ccc1CNC(=O)N1CC(OC(C)C)C1
% of control [2]: 46%

COc1cc(Nc2nc(C)cc(-c3cnn4nc(OC)ccc34)n2)cc(C(F)(F)F)c1
% of control [3]: 90% | % of control [4]: 100%

CCn1c(-c2nc3cc(C(=O)N4CCCC(N)C4)ccc3n2C)cc2ccccc21 (stereo not given)
pXC50 [5]: < 4.3 M

CC[C@@H]1[C@H](F)C(=O)N[C@@H]1COc1nccc2cc(C(N)=O)c(OC)cc12 [ZIMLOVISERTIB]
% of inhibition [6]: -1.3%

Cc1cc(CN)cc(C)c1-c1ncn(C)c1-c1cncn1C
% activity ([7]; at 1 µM): > 90% | % activity ([7]; at 10 µM): > 80%

CN(C)CC#Cc1ccc2[nH]c3c(c2c1)-c1nc(N)ncc1CCC3
% of control [8]: 26%

Nc1cnc(N2CCc3cc(S(=O)(=O)Nc4c(F)cc(Cl)cc4F)cc(N4CCCC4=O)c32)nc1 [TP-020n]
% of control [9]: 84%

CCC(=O)N1CCN(c2ccc(-n3c(=O)ccc4cnc5ccc(-c6cnc7ccccc7c6)cc5c43)cc2C(F)(F)F)CC1
% of control [10]: 24%

C=CC(=O)Nc1cc(-n2c(=O)ccc3cnc4ccc(-c5ccc(NS(C)(=O)=O)cc5)cc4c32)ccc1C
% of control [11]: 100%

O[C@H]1CC[C@H](Nc2ncc3nc(Nc4c(F)cc(F)cc4F)n([C@H]4CCOC4)c3n2)CC1
% of control [12]: 91% | % of control [13]: 95%

CNC(=O)Nc1ccc(-c2nc(N3CC4CCC(C3)O4)c3cnn(C4CCC5(CC4)OCCO5)c3n2)cc1
% of control [14]: 100%
